{
  "source": "patent US10905683B2",
  "about": "“Compositions and uses of amidine derivatives” (BIOCRYST PHARMACEUTICALS, INC., priority 2014, dated 2021)",
  "format_in_all_cases": "physicochemical",
  "key": {"[1]": {"test": "pKa by UV-metric and potentiometric titration", "source_text": "The pKa experiments have been performed by both UV-metric (in aqueous) and potentiometric method (in methanol cosolvents). Nine titrations have been performed for the compound, all from low to high pH (2.0-12.0)."}, "[2]": {"test": "octanol-PBS pH 7.4 partition coefficient (log D7.4) assay", "settings": "octanol/0.01 M phosphate buffer pH 7.4, 24 hours, LC/MS/MS", "procedure": "A 1 μL volume of a 1 mM stock solution of the compound in dimethyl sulfoxide (DMSO) was added to 500 μL 0.01 M phosphate buffer pH 7.4 (saturated with octanol) and 500 μL of octanol (saturated with 0.01 M phosphate buffer). […] Samples were prepared in triplicate."}, "[3]": {"test": "Solubility in surfactant solutions", "procedure": "The solubility of the compound of Example 1 in a range of surfactants was measured. Solubility assays were performed by the sequential addition of the compound of Example 1 to an appropriate organic solvent while stirring vigorously until a precipitate is formed. The resulting suspension is then shaken for 24 hours at room temperature, filtered and the resulting solution was analyzed by appropriate analytical method. Quantitation was performed by comparison of the concentrations of the resulting solution of the compound of Example 1 to a single point calibration curve using a solution of the reference standard."}},
  "note": "Values joined by “and” are separate entries in the source; they are usually repeats but may differ in a detail not shown here. Equal values may be shown once. Read-outs that look alike come from different tables or passages of the source.",
  "data": [
    {"smiles": "C=Cc1cc(C(=O)Nc2ccc(C(=N)N)cc2)c(-c2ccc(C(=O)NCC3CC3)nc2C(=O)O)cc1OC", "note": "[Example 1, 3-[2-(4-carbamimidoyl-phenylcarbamoyl)-5-methoxy-4-vinyl-phenyl]-6-(cyclopropylmethyl-carbamoyl)-pyridine-2-carboxylic acid]", "values": [
      {"measurement": "pKa", "setting": "[1]; aqueous (UV-metric), methanol cosolvents (potentiometric), no higher pKa observed by potentiometric method, read-out: higher pKa as reported", "result": "> 11"},
      {"measurement": "pKa", "setting": "[1]; aqueous (UV-metric), methanol cosolvents (potentiometric), no lower pKa observed by potentiometric method, read-out: lower pKa as reported", "result": "< 3"},
      {"measurement": "pKa", "setting": "[1]; aqueous, UV-metric method, aqueous, read-out: lower pKa", "result": "2.31 ± 0.15"},
      {"measurement": "logD at 24 h", "setting": "[2]", "result": 1.9},
      {"measurement": "Saturated concentration of Example 1", "setting": "[3]; 3-[(3-Chloamidopropyl)-dimethylamino]-1-propanesulfate 1%", "result": 0.66, "unit": "mg/mL"},
      {"measurement": "Saturated concentration of Example 1", "setting": "[3]; D-alpha-tocopheryl-polyethylene glycol 1000 succinate 12.3% (in PEG 400)", "result": 7.8, "unit": "mg/mL"},
      {"measurement": "Saturated concentration of Example 1", "setting": "[3]; D-alpha-tocopheryl-polyethylene glycol 1000 succinate 20% (in PEG 400)", "result": 20.8, "unit": "mg/mL"},
      {"measurement": "Saturated concentration of Example 1", "setting": "[3]; Lecithin 2% (in water)", "result": 1.2, "unit": "mg/mL"},
      {"measurement": "Saturated concentration of Example 1", "setting": "[3]; Lecithin 4% (in PEG 400)", "result": 3.3, "unit": "mg/mL"},
      {"measurement": "Saturated concentration of Example 1", "setting": "[3]; Lecithin 4% (in water)", "result": 2.2, "unit": "mg/mL"},
      {"measurement": "Saturated concentration of Example 1", "setting": "[3]; Lecithin 10% (in PEG 400)", "result": 10.6, "unit": "mg/mL"},
      {"measurement": "Saturated concentration of Example 1", "setting": "[3]; Lecithin 10% (in water)", "result": 3.1, "unit": "mg/mL"},
      {"measurement": "Saturated concentration of Example 1", "setting": "[3]; Octadecyl amine 1% (in PEG 400)", "result": "7.8 mg/mL and 7.1 mg/mL"},
      {"measurement": "Saturated concentration of Example 1", "setting": "[3]; Palmitoyl-carnitine chloride 0.10% (in water)", "result": 0.3, "unit": "mg/mL"},
      {"measurement": "Saturated concentration of Example 1", "setting": "[3]; dioctyl sodium sulfosuccinate 1% in PEG400", "result": 1.72, "unit": "mg/mL"},
      {"measurement": "Saturated concentration of Example 1", "setting": "[3]; sodium lauryl sulphate 1% (in water)", "result": 2.4, "unit": "mg/mL"},
      {"measurement": "Saturated concentration of Example 1", "setting": "[3]; sodium lauryl sulphate 2% (in water)", "result": 4.7, "unit": "mg/mL"},
      {"measurement": "Saturated concentration of Example 1", "setting": "[3]; sodium lauryl sulphate 5% (in water)", "result": 10, "unit": "mg/mL"}
    ]}
  ]
}
